Calls of active or inactive are those of the source. No cut-off for these calls is given here.
What was measured:
[1] = biological target: Rho-associated protein kinase 2 (Homo sapiens) (UniProt O75116); assay: Inhibition of ROCK2 in human NCI-H929 cells at 10 uM by mass spectroscopic analysis relative to control; format: cell-based
[2] = biological target: Serine/threonine-protein kinase 26 (Homo sapiens) (UniProt Q9P289); assay: Inhibition of MST4 in human NCI-H929 cells at 10 uM by mass spectroscopic analysis relative to control; format: cell-based
[3] = biological target: Tyrosine-protein kinase ABL1 (Homo sapiens) (UniProt P00519); assay: Inhibition of ABL in human NCI-H929 cells at 10 uM by mass spectroscopic analysis relative to control; format: cell-based
Chain of Tyrosine-protein kinase ABL1 (Homo sapiens) (P00519 whole entry): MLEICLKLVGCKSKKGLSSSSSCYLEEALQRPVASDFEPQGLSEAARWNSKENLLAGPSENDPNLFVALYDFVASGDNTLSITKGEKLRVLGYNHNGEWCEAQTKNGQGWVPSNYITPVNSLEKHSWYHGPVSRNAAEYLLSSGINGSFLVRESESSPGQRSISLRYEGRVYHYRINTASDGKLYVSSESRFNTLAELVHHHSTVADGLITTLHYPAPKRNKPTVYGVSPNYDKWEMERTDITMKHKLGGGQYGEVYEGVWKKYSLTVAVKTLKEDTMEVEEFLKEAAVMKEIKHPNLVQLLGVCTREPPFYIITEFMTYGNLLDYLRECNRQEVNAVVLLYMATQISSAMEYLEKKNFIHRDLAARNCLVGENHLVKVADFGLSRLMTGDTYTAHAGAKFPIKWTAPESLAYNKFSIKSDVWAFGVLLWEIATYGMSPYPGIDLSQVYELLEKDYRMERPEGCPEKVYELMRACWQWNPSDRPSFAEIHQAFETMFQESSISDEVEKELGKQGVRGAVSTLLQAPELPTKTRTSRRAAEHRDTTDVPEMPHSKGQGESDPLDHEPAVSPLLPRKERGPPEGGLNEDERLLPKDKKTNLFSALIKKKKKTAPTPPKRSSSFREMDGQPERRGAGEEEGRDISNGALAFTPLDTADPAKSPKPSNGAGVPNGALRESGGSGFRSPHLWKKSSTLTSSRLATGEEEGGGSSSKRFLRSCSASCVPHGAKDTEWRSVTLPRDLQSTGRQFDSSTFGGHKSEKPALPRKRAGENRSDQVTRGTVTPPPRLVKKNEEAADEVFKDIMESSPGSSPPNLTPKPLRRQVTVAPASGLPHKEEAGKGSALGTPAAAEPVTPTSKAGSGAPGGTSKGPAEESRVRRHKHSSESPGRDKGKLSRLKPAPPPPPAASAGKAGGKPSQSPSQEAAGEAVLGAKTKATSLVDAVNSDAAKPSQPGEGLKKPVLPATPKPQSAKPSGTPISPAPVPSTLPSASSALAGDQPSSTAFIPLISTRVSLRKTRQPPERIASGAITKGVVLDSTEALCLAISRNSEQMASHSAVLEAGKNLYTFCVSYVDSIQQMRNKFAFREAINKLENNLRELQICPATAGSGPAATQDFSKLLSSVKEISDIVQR

[4] = biological target: DNA-dependent protein kinase catalytic subunit (Homo sapiens) (UniProt P78527); assay: Inhibition of DNAPK in human NCI-H929 cells at 10 uM by mass spectroscopic analysis relative to control; format: cell-based
[5] = system: MM1.S; assay: Downregulation of phosphorylated-MOB1 protein level in human MM1.S cells at 1 to 10 uM measured after 6 hrs by Western blot analysis; format: functional, cell-based; settings: dose 1-10 µM
[6] = biological target: 5'-AMP-activated protein kinase catalytic subunit alpha-1 (Homo sapiens) (UniProt Q13131); assay: Inhibition of AMPKa1 in human NCI-H929 cells at 10 uM by mass spectroscopic analysis relative to control; format: cell-based
Chain of 5'-AMP-activated protein kinase catalytic subunit alpha-1 (Homo sapiens) (Q13131 whole entry, looked up): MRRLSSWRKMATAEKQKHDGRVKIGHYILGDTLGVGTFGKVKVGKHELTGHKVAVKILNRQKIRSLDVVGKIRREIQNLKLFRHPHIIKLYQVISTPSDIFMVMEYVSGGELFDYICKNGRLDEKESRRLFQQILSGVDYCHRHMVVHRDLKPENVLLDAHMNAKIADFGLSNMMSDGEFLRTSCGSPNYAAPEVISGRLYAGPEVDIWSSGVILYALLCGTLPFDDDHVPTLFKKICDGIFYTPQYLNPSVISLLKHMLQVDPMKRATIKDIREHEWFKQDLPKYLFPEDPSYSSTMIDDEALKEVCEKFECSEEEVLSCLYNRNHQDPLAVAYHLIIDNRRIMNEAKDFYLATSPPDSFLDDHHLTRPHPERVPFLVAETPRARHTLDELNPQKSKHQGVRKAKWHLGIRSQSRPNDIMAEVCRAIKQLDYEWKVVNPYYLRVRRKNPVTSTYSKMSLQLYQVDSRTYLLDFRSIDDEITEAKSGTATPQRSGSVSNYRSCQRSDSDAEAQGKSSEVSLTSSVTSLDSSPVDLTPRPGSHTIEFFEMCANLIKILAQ

[7] = biological target: Tyrosine-protein kinase ABL2 (Homo sapiens) (UniProt P42684); assay: Inhibition of ARG in human NCI-H929 cells at 10 uM by mass spectroscopic analysis relative to control; format: cell-based
Chain of Tyrosine-protein kinase ABL2 (Homo sapiens) (P42684 whole entry): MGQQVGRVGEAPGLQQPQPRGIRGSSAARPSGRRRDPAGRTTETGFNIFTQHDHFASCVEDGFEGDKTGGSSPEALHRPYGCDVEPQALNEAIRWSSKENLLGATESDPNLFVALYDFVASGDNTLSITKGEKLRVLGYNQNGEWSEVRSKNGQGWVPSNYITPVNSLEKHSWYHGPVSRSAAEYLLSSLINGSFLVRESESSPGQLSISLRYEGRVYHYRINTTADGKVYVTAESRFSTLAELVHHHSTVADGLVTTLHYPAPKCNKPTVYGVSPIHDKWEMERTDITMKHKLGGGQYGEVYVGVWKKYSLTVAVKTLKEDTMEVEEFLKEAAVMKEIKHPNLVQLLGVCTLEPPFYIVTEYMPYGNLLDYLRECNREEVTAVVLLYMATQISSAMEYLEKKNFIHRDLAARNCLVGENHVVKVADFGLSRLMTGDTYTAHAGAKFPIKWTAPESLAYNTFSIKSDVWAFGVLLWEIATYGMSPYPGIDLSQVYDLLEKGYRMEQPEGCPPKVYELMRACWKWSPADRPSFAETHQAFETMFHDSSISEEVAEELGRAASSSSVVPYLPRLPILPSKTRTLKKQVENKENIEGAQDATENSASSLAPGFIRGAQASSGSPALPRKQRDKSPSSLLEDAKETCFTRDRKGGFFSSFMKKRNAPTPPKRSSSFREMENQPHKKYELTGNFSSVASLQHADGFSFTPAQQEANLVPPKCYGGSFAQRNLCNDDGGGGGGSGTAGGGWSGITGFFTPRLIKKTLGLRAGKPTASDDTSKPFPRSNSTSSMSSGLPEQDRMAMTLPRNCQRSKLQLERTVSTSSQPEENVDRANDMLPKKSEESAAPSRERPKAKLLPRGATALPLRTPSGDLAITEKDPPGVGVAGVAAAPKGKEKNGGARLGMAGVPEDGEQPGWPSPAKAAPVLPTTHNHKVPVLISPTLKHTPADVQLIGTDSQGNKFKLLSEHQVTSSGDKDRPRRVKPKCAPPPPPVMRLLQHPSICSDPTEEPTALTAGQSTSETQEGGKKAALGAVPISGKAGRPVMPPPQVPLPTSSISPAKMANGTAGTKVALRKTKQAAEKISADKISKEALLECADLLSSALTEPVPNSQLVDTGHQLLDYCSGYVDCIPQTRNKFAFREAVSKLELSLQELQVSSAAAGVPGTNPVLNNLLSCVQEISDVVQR

[8] = biological target: Serine/threonine-protein kinase MARK1 (Homo sapiens) (UniProt Q9P0L2); assay: Inhibition of MARK1 in human NCI-H929 cells at 10 uM by mass spectroscopic analysis relative to control; format: cell-based
Chain of Serine/threonine-protein kinase MARK1 (Homo sapiens) (Q9P0L2 whole entry, looked up): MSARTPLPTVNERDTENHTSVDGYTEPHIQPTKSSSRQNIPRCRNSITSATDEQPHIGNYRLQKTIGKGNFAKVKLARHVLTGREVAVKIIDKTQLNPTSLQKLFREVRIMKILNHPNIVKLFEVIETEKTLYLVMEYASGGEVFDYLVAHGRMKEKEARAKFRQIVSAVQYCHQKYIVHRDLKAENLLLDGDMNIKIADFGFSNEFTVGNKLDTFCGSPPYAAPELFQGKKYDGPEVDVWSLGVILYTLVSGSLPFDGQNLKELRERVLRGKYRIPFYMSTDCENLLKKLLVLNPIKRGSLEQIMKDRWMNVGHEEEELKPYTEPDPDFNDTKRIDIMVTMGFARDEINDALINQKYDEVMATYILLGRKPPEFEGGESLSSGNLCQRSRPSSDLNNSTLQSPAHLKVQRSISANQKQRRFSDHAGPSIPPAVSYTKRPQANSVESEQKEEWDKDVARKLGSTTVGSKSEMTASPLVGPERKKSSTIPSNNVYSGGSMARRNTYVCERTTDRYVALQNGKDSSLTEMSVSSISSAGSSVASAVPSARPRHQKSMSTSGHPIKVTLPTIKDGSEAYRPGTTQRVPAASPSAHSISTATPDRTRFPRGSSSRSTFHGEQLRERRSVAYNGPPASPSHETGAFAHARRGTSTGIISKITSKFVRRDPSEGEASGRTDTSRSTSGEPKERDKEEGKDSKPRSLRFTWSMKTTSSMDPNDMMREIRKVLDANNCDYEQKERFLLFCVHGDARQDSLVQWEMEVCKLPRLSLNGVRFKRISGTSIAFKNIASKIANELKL

[9] = biological target: 5'-AMP-activated protein kinase catalytic subunit alpha-2 (Homo sapiens) (UniProt P54646); assay: Inhibition of AMPKa2 in human NCI-H929 cells at 10 uM by mass spectroscopic analysis relative to control; format: cell-based
[10] = biological target: T1, Serine/threonine-protein kinase TAO1 (Homo sapiens) (UniProt Q7L7X3); assay: Inhibition of TAO1 in human NCI-H929 cells at 10 uM by mass spectroscopic analysis relative to control; format: cell-based
T1 sequence (whole entry): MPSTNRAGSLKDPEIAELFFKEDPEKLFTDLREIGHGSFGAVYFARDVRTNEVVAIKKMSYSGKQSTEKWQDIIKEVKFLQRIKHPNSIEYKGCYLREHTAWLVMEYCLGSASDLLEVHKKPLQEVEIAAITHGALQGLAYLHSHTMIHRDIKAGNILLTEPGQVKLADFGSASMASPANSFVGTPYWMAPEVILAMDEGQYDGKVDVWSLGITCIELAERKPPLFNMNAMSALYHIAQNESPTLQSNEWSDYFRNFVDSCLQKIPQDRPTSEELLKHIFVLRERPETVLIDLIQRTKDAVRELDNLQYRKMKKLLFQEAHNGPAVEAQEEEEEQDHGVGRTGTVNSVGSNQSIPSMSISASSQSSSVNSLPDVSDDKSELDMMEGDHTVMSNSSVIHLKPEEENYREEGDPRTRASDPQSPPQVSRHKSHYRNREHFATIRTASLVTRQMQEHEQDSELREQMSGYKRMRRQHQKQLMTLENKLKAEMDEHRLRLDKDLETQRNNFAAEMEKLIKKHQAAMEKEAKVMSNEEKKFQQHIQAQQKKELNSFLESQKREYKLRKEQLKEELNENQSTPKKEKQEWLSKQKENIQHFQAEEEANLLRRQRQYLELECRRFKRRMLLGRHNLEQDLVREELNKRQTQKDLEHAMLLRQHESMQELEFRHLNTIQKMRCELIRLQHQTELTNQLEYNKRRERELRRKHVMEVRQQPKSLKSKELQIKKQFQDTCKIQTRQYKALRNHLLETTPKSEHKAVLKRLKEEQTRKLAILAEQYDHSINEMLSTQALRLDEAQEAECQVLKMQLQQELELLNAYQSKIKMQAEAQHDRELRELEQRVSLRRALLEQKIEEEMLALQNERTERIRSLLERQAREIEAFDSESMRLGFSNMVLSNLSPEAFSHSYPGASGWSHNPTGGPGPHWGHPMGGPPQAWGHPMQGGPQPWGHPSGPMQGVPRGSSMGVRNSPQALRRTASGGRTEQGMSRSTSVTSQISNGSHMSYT

[11] = biological target: T2, TGF-beta receptor type-1 (Homo sapiens) (UniProt P36897); assay: Inhibition of TGFBR1 in human NCI-H929 cells at 10 uM by mass spectroscopic analysis relative to control; format: cell-based
T2 sequence (whole entry): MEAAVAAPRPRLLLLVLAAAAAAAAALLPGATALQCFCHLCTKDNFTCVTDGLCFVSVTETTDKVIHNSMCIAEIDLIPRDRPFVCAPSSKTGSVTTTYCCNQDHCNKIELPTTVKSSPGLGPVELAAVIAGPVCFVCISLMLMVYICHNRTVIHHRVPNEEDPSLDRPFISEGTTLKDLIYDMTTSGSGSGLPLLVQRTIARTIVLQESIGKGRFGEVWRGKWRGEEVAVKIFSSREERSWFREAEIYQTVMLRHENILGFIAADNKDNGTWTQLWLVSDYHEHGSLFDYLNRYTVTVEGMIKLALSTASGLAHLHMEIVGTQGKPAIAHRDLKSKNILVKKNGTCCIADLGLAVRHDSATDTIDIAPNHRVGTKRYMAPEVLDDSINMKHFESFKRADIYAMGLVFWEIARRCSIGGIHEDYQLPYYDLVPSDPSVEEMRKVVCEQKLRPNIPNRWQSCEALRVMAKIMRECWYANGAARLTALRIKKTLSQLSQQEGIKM

[12] = system: MAP4K2 (Homo sapiens); assay: Inhibition of GCK in human NCI-H929 cells at 10 uM by mass spectroscopic analysis relative to control

Chain of Rho-associated protein kinase 2 (Homo sapiens) (O75116 whole entry, looked up): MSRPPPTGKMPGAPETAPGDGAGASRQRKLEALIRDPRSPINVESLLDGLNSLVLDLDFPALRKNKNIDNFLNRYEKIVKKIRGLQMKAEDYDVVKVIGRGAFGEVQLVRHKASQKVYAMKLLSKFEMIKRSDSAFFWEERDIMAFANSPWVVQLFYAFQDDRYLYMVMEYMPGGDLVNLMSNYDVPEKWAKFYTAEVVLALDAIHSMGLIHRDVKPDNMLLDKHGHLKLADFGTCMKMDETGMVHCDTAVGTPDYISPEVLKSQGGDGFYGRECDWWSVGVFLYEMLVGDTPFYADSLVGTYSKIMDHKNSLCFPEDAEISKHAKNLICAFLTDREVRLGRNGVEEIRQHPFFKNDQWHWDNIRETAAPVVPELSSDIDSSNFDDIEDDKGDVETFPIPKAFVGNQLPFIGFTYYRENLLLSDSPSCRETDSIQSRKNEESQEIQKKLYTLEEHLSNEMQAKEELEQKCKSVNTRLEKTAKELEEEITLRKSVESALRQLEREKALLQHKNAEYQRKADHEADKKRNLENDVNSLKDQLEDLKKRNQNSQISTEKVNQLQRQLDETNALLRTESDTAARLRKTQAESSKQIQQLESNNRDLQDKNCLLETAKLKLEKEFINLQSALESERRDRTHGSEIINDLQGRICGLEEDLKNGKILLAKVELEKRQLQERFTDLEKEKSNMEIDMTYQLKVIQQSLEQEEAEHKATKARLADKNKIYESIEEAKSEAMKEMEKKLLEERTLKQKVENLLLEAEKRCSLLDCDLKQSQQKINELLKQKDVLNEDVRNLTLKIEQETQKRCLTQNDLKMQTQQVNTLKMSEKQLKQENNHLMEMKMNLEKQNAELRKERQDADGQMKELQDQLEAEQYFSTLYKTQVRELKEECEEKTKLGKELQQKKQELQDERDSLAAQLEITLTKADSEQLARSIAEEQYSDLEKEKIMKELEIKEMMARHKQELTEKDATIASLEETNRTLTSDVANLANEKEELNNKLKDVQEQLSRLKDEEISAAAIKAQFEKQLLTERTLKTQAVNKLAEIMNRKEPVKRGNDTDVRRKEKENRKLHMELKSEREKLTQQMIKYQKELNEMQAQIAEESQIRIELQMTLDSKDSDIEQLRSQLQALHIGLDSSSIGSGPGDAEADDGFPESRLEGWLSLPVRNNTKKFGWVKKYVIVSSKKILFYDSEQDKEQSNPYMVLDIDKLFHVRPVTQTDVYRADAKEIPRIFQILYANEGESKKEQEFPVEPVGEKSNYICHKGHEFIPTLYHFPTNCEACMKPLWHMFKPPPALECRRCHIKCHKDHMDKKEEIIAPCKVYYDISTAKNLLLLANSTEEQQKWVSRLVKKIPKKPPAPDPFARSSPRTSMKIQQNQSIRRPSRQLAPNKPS

inhibition [1] [%]	inhibition [2] [%]	inhibition [3] [%]	inhibition [4] [%]	inhibition [6] [%]	inhibition [7] [%]	inhibition [8] [%]	inhibition [9] [%]	inhibition [10] [%]	inhibition [11] [%]	inhibition [12] [%]	SMILES	Activity [5]
0	< 90	0	< 90	0	0	0	0				CN(C1CC1)S(=O)(=O)c1ccc(-c2cnc(N)c(-c3ccc4c(c3)CCNC4=O)c2)c(F)c1	Active
0	0	50	< 75	0	50	0	0	0			Nc1ncc(-c2cccc3ncsc23)cc1-c1ccc2c(c1)CCNC2=O	Active
0	0										Nc1ncc(-c2cccc([N+](=O)[O-])c2F)cc1-c1ccc2c(c1)CCNC2=O	Active
		0		0	0	0	0	0	75	0	COc1cc(NS(=O)(=O)C2CC2)ccc1-c1cnc(N)c(-c2ccc3c(c2)CCNC3=O)c1	
		0	0		0	0		0	> 90	> 90	Nc1ncc(-c2ccc(NS(=O)(=O)C3CC3)cc2OC2CCCCC2)cc1-c1ccc2c(c1)CCNC2=O	
	< 75	0	0	0	0	0	0		0	> 90	Nc1ncc(-c2ccc(NS(=O)(=O)C3CC3)cc2F)cc1-c1ccc2c(c1)CCNC2=O	
